This note sets out measurements from patent US8865734B2 (priority 2010, dated 2014).

Assay [1] relates to in vitro grown Mycobacteria (M. tuberculosis). Briefly: QUM: Quantification of in vitro grown Mycobacteria (in vitro growth fluorescence assay). The conditions noted are these: Mycobacterium tuberculosis; MIC, 80% bacterial growth inhibition; in vitro growth; read-out: QUM. It is filed as cell-based. Summed up: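 Mycobacterium tuberculosis grown in vitro was quantified by fluorescence across compound dose responses. MIC is defined as the minimum concentration producing 80% growth inhibition.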

Assay [2] has as its system M. tuberculosis inside the host macrophage. Briefly: QIM: Quantification of Intracellular Mycobacteria (intracellular growth assay, phenotypic cell-based). The conditions noted are these: Mycobacterium tuberculosis; MIC, 80% bacterial growth inhibition; intracellular growth; read-out: QIM. Summed up:
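Dose-response testing of intracellular mycobacterial replication in infected macrophages, a cell-based screening format; MIC is defined as the lowest concentration achieving 80% inhibition of bacterial growth.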

Each structure is given as a SMILES string. Values after ≈ are worked out from the molar mass of the structure shown.

Turning to `CCc1nc2cc([N+](=O)[O-])ccn2c1C(=O)NCc1ccc(OC(F)(F)F)cc1` [Compound 150, 2-Ethyl-7-nitro-N-(4-(trifluoromethoxy)benzyl)imidazo[1,2-a]pyridine-3-carboxamide], the MIC in assay [1] and in assay [2] was greater than 20 µM in each case.
With `CCc1nc2ccc(C(F)(F)F)cn2c1C(=O)NCc1ccc(OC(F)(F)F)cc1` [Compound 151, 2-Ethyl-N-(4-(trifluoromethoxy)benzyl)-6-(trifluoromethyl)imidazo[1,2-a]pyridine-3-carboxamide], the figures for the MIC in assay [1] and in assay [2] were 1 to 20 µM (≈ 0.431 to 8.63 µg/mL) and greater than 20 µM, respectively.
Consider `CCc1nc2ccc(Br)cn2c1C(=O)NCc1ccc(OC(F)(F)F)cc1` [Compound 152, 6-Bromo-2-ethyl-N-(4-(trifluoromethoxy)benzyl)imidazo[1,2-a]pyridine-3-carboxamide], for which the MIC in assay [1] and in assay [2] was less than 1 µM in each case.
Take `CCc1nc2cc(Cl)c(Cl)cn2c1C(=O)NCc1ccc(OC(F)(F)F)cc1` [Compound 153, 6,7-Dichloro-2-ethyl-N-(4-(trifluoromethoxy)benzyl)imidazo[1,2-a]pyridine-3-carboxamide]: the figures for the MIC in assay [1] and in assay [2] were 1 to 20 µM (≈ 0.432 to 8.64 µg/mL) and greater than 20 µM, respectively.
The matching figures for `Cc1nc2ccc(Cl)cn2c1C(=O)NCc1ccc(OC(F)(F)F)cc1` [Compound 154, 6-Chloro-2-methyl-N-(4-(trifluoromethoxy)benzyl)imidazo[1,2-a]pyridine-3-carboxamide]: less than 1 µM and 1 to 20 µM (≈ 0.384 to 7.68 µg/mL).
For the compound `CCCC(=O)NCc1ccc(-c2ccc(CNC(=O)c3c(CC)nc4cc(Cl)ccn34)cc2)cc1` [Compound 159, N-((4′-(Butyramidomethyl)biphenyl-4-yl)methyl)-7-chloro-2-ethylimidazo[1,2-a]pyridine-3-carboxamide], the MIC in assay [1] and in assay [2] was less than 1 µM throughout.
`CCc1nc2ccc(Cl)cn2c1C(=O)NCc1ccc(N2CCC(Oc3ccc(Cl)cc3)CC2)cc1` [Compound 162, 6-Chloro-N-(4-(4-(4-chlorophenoxy)piperidin-1-yl)benzyl)-2-ethylimidazo[1,2-a]pyridine-3-carboxamide]: the MIC in assay [1] and in assay [2] was less than 1 µM throughout.
Consider `CCc1nc2cc(Cl)ccn2c1C(=O)NCc1ccc(N2CCC(Oc3ccc(Cl)cc3)CC2)cc1` [Compound 163, 7-Chloro-N-(4-(4-(4-chlorophenoxy)piperidin-1-yl)benzyl)-2-ethylimidazo[1,2-a]pyridine-3-carboxamide], for which the MIC in assay [1] and in assay [2] was less than 1 µM in each case.
For the compound `CCc1nc2ccc(Cl)cn2c1C(=O)NCc1ccc(N2CCC(Oc3ccc(C(F)(F)F)cc3)CC2)cc1` [Compound 164, 6-Chloro-2-ethyl-N-(4-(4-(4-(trifluoromethyl)phenoxy)piperidin-1-yl)benzyl) imidazo[1,2-a]pyridine-3-carboxamide], the MIC in assay [1] and in assay [2] was less than 1 µM each time.
`CCc1nc2cc(Cl)ccn2c1C(=O)NCc1ccc(N2CCC(Oc3ccc(C(F)(F)F)cc3)CC2)cc1` [Compound 165, 7-Chloro-2-ethyl-N-(4-(4-(4-(trifluoromethyl)phenoxy)piperidin-1-yl)benzyl) imidazo[1,2-a]pyridine-3-carboxamide]: the MIC in assay [1] and in assay [2] was less than 1 µM throughout.
As to `CCc1nc2ccc(Cl)cn2c1C(=O)NCc1ccc(N2CCC(Oc3ccc(F)cc3)CC2)cc1` [Compound 166, 6-Chloro-2-ethyl-N-(4-(4-(4-fluorophenoxy)piperidin-1-yl)benzyl)imidazo[1,2-a]pyridine-3-carboxamide], the MIC in assay [1] and in assay [2] was less than 1 µM throughout.
As to `CCc1nc2ccc(C(F)(F)F)cn2c1C(=O)NCc1ccc(N2CCC(Oc3ccc(OC(F)(F)F)cc3)CC2)cc1` [Compound 168, 2-Ethyl-N-(4-(4-(4-(trifluoromethoxy)phenoxy)piperidin-1-yl)benzyl)-6-(trifluoromethyl)imidazo[1,2-a]pyridine-3-carboxamide], the MIC in assay [1] and in assay [2] was 1 to 20 µM (≈ 0.607 to 12.1 µg/mL) in each case.
`CCc1nc2cc([N+](=O)[O-])ccn2c1C(=O)NCc1ccc(N2CCC(Oc3ccc(OC(F)(F)F)cc3)CC2)cc1` [Compound 170, 2-Ethyl-7-nitro-N-(4-(4-(4-(trifluoromethoxy)phenoxy)piperidin-1-yl)benzyl) imidazo[1,2-a]pyridine-3-carboxamide]: the MIC in assay [1] and in assay [2] was 1 to 20 µM (≈ 0.584 to 11.7 µg/mL) in each case.
In the case of `CCc1nc2ccc(Cl)cn2c1C(=O)NCc1ccc(N2CCN(Cc3ccc(F)cc3)CC2)cc1` [Compound 171, 6-Chloro-2-ethyl-N-(4-(4-(4-fluorobenzyl)piperazin-1-yl)benzyl)imidazo[1,2-a]pyridine-3-carboxamide], the MIC in assay [1] and in assay [2] was less than 1 µM throughout.
`CCc1nc2cc(Cl)c(Cl)cn2c1C(=O)NCc1ccc(N2CCN(Cc3ccc(F)cc3)CC2)cc1` [Compound 175, 6,7-Dichloro-2-ethyl-N-(4-(4-(4-fluorobenzyl)piperazin-1-yl)benzyl)imidazo[1,2-a]pyridine-3-carboxamide]: the MIC was greater than 20 µM in assay [1] and less than 1 µM in assay [2].
The matching figures for `CCc1nc2cc(Cl)c(Cl)cn2c1C(=O)NCc1ccc(N2CCN(c3ccc(F)cc3)CC2)cc1` [Compound 180, 6,7-Dichloro-2-ethyl-N-(4-(4-(4-fluorophenyl)piperazin-1-yl)benzyl)imidazo[1,2-a]pyridine-3-carboxamide]: less than 1 µM and less than 1 µM.
For `CCCCCC(=O)NCc1ccc(-c2ccc(CNC(=O)c3c(CC)nc4cc(Cl)ccn34)cc2)cc1` [Compound 184, 7-Chloro-2-ethyl-N-((4′-(hexanamidomethyl)biphenyl-4-yl)methyl)imidazo[1,2-a]pyridine-3-carboxamide], in that order: less than 1 µM and less than 1 µM.
As for `CCc1nc2cc(Cl)ccn2c1C(=O)NCc1ccc(Oc2ccc(F)cc2)cc1` [Compound 188, 7-Chloro-2-ethyl-N-(4-(4-fluorophenoxy)benzyl)imidazo[1,2-a]pyridine-3-carboxamide], the MIC in assay [1] and in assay [2] was less than 1 µM each time.
As for `CCc1nc2ccc(Br)cn2c1C(=O)NCc1ccc(Oc2ccc(F)cc2)cc1` [Compound 189, 6-Bromo-2-ethyl-N-(4-(4-fluorophenoxy)benzyl)imidazo[1,2-a]pyridine-3-carboxamide], the MIC in assay [1] and in assay [2] was less than 1 µM throughout.
Consider `CCc1nc2ccccn2c1C(=O)NCc1ccc(Oc2ccc(OC(F)(F)F)cc2)cc1` [Compound 192, 2-Ethyl-N-(4-(4-(trifluoromethoxy)phenoxy)benzyl)imidazo[1,2-a]pyridine-3-carboxamide], for which the MIC in assay [1] and in assay [2] was less than 1 µM each time.
On to `CCc1nc2cc(Cl)ccn2c1C(=O)NCc1ccc(Oc2ccc(OC(F)(F)F)cc2)nc1` [Compound 195, 7-Chloro-2-ethyl-N-((6-(4-(trifluoromethoxy)phenoxy)pyridin-3-yl)methyl)imidazo[1,2-a]pyridine-3-carboxamide], for which the MIC in assay [1] and in assay [2] was 1 to 20 µM (≈ 0.491 to 9.82 µg/mL) throughout.
For `CCc1nc2ccc(Cl)cn2c1C(=O)N(C)Cc1ccc(Oc2ccc(F)cc2)cc1` [Compound 197, 6-Chloro-2-ethyl-N-(4-(4-fluorophenoxy)benzyl)-N-methylimidazo[1,2-a]pyridine-3-carboxamide], the MIC in assay [1] and in assay [2] was 1 to 20 µM (≈ 0.438 to 8.76 µg/mL) throughout.
Turning to `CCc1nc2ccc(Cl)cn2c1C(=O)NCc1ccc(Nc2ccc(OC(F)(F)F)cc2)cc1` [Compound 198, 6-Chloro-2-ethyl-N-(4-(4-(trifluoromethoxy)phenylamino)benzyl)imidazo[1,2-a]pyridine-3-carboxamide], the figures for the MIC in assay [1] and in assay [2] were 1 to 20 µM (≈ 0.489 to 9.78 µg/mL) and less than 1 µM, respectively.
For `CCc1nc2cc(Cl)ccn2c1C(=O)NCc1ccc(Nc2ccc(OC(F)(F)F)cc2)cc1` [Compound 199, 7-Chloro-2-ethyl-N-(4-(4-(trifluoromethoxy)phenylamino)benzyl)imidazo[1,2-a]pyridine-3-carboxamide], in that order: less than 1 µM and less than 1 µM.
For `CCc1nc2ccc(Cl)cn2c1C(=O)NCc1ccc(OCc2ccc(F)cc2)cc1` [Compound 202, 6-Chloro-2-ethyl-N-(4-(4-fluorobenzyloxy)benzyl)imidazo[1,2-a]pyridine-3-carboxamide], in that order: less than 1 µM and less than 1 µM.
For `CCc1nc2cc(Cl)ccn2c1C(=O)NCc1ccc(OCc2ccc(F)cc2)cc1` [Compound 203, 7-Chloro-2-ethyl-N-(4-(4-fluorobenzyloxy)benzyl)imidazo[1,2-a]pyridine-3-carboxamide], in that order: 1 to 20 µM (≈ 0.438 to 8.76 µg/mL) and 1 to 20 µM (≈ 0.438 to 8.76 µg/mL).
Consider `CCc1nc2ccc(Cl)cn2c1C(=O)NCc1ccc2[nH]c(-c3ccc(OC(F)(F)F)cc3)nc2c1` [Compound 204, 6-Chloro-2-ethyl-N-((2-(4-(trifluoromethoxy)phenyl)-1H-benzo[d]imidazol-5-yl)methyl) imidazo[1,2-a]pyridine-3-carboxamide], for which the MIC in assay [1] and in assay [2] was greater than 20 µM throughout.
Turning to `CCc1nc2cc(Cl)ccn2c1C(=O)NCc1ccc2[nH]c(-c3ccc(OC(F)(F)F)cc3)nc2c1` [Compound 205, 7-Chloro-2-ethyl-N-((2-(4-(trifluoromethoxy)phenyl)-1H-benzo[d]imidazol-5-yl)methyl) imidazo[1,2-a]pyridine-3-carboxamide], the MIC in assay [1] and in assay [2] was greater than 20 µM each time.
With `CCc1nc2cc(Cl)ccn2c1C(=O)NCc1ccc2[nH]c(CN3CCOCC3)nc2c1` [Compound 206, 7-Chloro-2-ethyl-N-((2-(morpholinomethyl)-1H-benzo[d]imidazol-5-yl)methyl) imidazo[1,2-a]pyridine-3-carboxamide], the MIC in assay [1] and in assay [2] was greater than 20 µM throughout.
